Reference: patent US8618067B2, “L-sugar colon cleansing agent and uses thereof” (Aptalis Pharma US, Inc., priority 2009, dated 2013)
Values joined by “and” are separate entries in the source; they are usually repeats but may differ in a detail not shown here. Identical values can stand only once.

Key:
colon [1] = assay: Open-label, historically controlled, single-dose study of L-glucose as colon-cleansing agent before colonoscopy (Raymer et al.); type: in vivo, human; conditions: 24-g single dose; equivalent of the 80% success rating
Method: For example, an open-label, historically controlled, single-dose study of a 24-g dose of L-glucose was conducted to determine the safety and effectiveness of L-glucose as a colon-cleansing agent before colonoscopy (Raymer et al., “An open-label trial of L-glucose as a colon-cleansing agent before colonoscopy,” Gastrointest Endosc 58(1):30-5, 2003).

[2] = cited from earlier work
colon [3] = assay: Comparative Example 2: randomized, single-blind study of L-glucose as bowel preparation before colonoscopy (GPA scale); type: in vivo, human
Method: (§1) Global Preparation Assessment
(§2) Excellent=clean colon or small volume of clear liquid
(§3) Good=moderate to large volume of clear to semiclear liquid
(§4) Fair=some semisolid stool suctioned or washed away
(§5) Poor=semisolid or solid stool unable to be suctioned or washed away
A randomized, single-blind study designed to determine the clinical effectiveness of L-glucose as a bowel preparation before colonoscopy was performed. Three dose regimens were evaluated: 24 g in the evening only, 30 g in the evening only, and 24 g in the evening followed by 12 g in the morning (36 g total). Here, Applicant's GPA scale described herein was used to evaluate the preparations. […] Clinical efficacy (defined as a combination of “excellent” and “good” assessments) for the split-dose schedule was 19/27 (70%), as compared to 7/31 (23%) in the single-dose schedule (p<0.001).
As noted above in the description of Applicant's GPA scale, the criteria for determining whether a preparation was deemed “excellent” or “good” was respectively defined as “clean colon or small volume of clear liquid” or “moderate to large volume of clear to semi-clear liquid.” These criteria are more stringent than the rating system used by Raymer et al. discussed supra since Raymer's “excellent” and “good” ratings were respectively defined as “no more than small bits of adherent fecal fluid” and “small amounts of feces or fluid not interfering with the examination.” Thus, Raymer's “excellent” rating would likely not qualify as even a “good” rating in Applicant's GPA scale.

colon [4] = assay: Comparative Example 1: multicenter, double-blind, dose-range-finding study of L-glucose as colon-cleansing agent before colonoscopy; type: in vivo, human; conditions: single doses 12 g, 16 g, 20 g, 24 g; scale of Hsu et al.
Method: A multicenter, double-blind, dose-range-finding study to evaluate the effectiveness and safety of L-glucose as a colon-cleansing agent before colonoscopy was conducted. Doses used in this study were 12 g, 16 g, 20 g, and 24 g. The assessment of the preparations was based on the scale used in Hsu et al., “Meta-analysis and cost comparison of polyethylene glycol lavage versus sodium phosphate for colonoscopy preparation,” Gastrointestinal Endoscopy 48(3):276-282, 1998, wherein small bits of fecal material in the colon were allowed in an “Excellent” score.

colon [5] = conditions: 24-g single dose; Raymer scale; cited from earlier work
colon [6] = assay: Example 3: open-label, 2-site dose-escalating split-dose study of L-glucose before colonoscopy (GPA and RSS); type: in vivo, human
Source text: Applicants have relied upon a combination of a categorical, 4-point scale and a numerical, segmental scoring system to assess bowel cleansing quality (Balaban et al. “Low volume bowel preparation for colonoscopy: randomized, endoscopist-blinded trial of liquid sodium phosphate versus tablet sodium phosphate,” Am J Gastroenterol 98:827-32, 2003). The basic 4-point scale, known as the Global Preparation Assessment (GPA), is essentially the same as the original scale used in the first randomized controlled trial of PHOSPHO-SODA™ as a bowel cleansing agent published in 1990 by Vanner, et al. (“A randomized prospective trial comparing oral sodium phosphate with standard polyethylene glycol-based lavage solution (Golytely) in the preparation of patients for colonoscopy,” Am J Gastroenterol 85:422-7, 1990). The numerical scoring system, known as the Residual Stool Score (RSS), is a continuously variable, averaged segmental scoring instrument that assesses both the amount and consistency of residual stool before suctioning (a measure of the cathartic activity of the bowel cleansing regimen) as well as the percent of the bowel wall seen after washing and cleansing (a measure of the ultimate endpoint for bowel preparation success). The two scales are shown below.
as §1, §2, §3, §4, §5
This open-label, 2-site study employed a dose-escalating design using 3 split doses of L-glucose (24 g/24 g, 36 g/36 g, and 48 g/48 g). The doses were administered the night before and the morning of a scheduled colonoscopy. The study was conducted in Phase I facilities to control for administration of L-glucose and adherence to the dietary and hydration regimen.
Three dose cohorts of 24 subjects were evenly divided between males and females for each cohort. Subjects who were scheduled to undergo an elective colonoscopy, who met the study entrance criteria, and who gave their consent to participate in the study were enrolled. […] Each subject observed a strict diet and hydration regimen as part of the study medication administration.
The site pharmacist prepared the L-glucose preparation based on the study medication preparation manual provided. Each subject, regardless of dose cohort, received the dose in 8 ounces of water, which was to be consumed within a 10-minute period. Dose cohorts proceeded in a dose-escalating fashion starting with the lowest dose (24 g/24 g) and escalated according to a dose escalation decision tree.
The physician performing the colonoscopy utilized Applicant's GPA scale to evaluate the quality of bowel preparation as before suctioning and washing.
The Residual Stool Score (RSS) described above was also used to assess bowel cleansing in each of the 5 segments of the bowel (rectum, descending colon, transverse colon, ascending colon, and cecum). As noted, assessments included the amount of stool present, the consistency of the stool, and the estimated percentage of the bowel wall visualized in each segment.
For reasons of inadequate bowel preparation, sections of the bowel that were not directly examined during colonoscopy were rated as “poor” on all three measures listed previously.
A total of 24 subjects were enrolled into each of the three dose cohorts. All 72 subjects were included in the intent-to-treat (ITT) and safety populations.

[7] = cited from earlier work; remark: listed apart in the source
[8] = Dissolution of solid L-glucose forms in water with consumer-like stirring; type: physicochemical; conditions: for Time of stirring until sample fully dissolved: 53 g in 240 mL doubly distilled water
Method: Each sample comprises approximately an equivalent amount of L-glucose on a weight basis. Carefully, to avoid agitation and mixing, doubly distilled water (240 mL) is added to each beaker. In one example, the solution is stirred immediately after addition of water. […] The stiffing was conducted in a manner duplicating the way a consumer is expected to stir a sample prior to use.

[9] = 48 g/48 g dose compared with lower split doses

O=C[C@@H](O)[C@H](O)[C@@H](O)[C@@H](O)CO [L-glucose]
Failure rating (colon [1]): 20%
Absorption from the human intestine [2]: moderately absorbed
Glucose or insulin response after administration ([2]; human): No significant glucose or insulin response
Lower gastrointestinal symptoms (cramping, gas/flatus), mild ([2]; human): occurred in a majority of subjects
Metabolism by colonic bacteria (breath hydrogen, comparable with in vitro studies) ([2]; human): colonic bacteria do not metabolize
Mild upper gastrointestinal symptoms (vomiting, nausea, belching/rifting, bloating) ([2]; human): occurred in a minority of subjects
Outcome of the evening-only dose arms (colon [3]; 24 g and 30 g evening only): suspended for lack of effectiveness
Changes in laboratory test results (colon [3]; in vivo): no clinically significant changes
Commonly reported adverse events (colon [3]; in vivo): generally absent or mild
Overall tolerance to the bowel preparation (colon [3]; in vivo): good or very good
Acceptability as a colonic cleanser (colon [4]): not acceptable
Subjects with colonoscopy preparation grade of excellent or good (colon [5]): 80%
Subjects with GPA rated Excellent (clean colon or small volume of clear liquid) (colon [6]; 24 g/24 g cohort): 12 (50.0%) subjects (%) and 12 (50.0) subjects (%)
Subjects with GPA rated Fair (some semisolid stool suctioned or washed away) (colon [6]; 24 g/24 g cohort): 5 (20.8) subjects (%)
Subjects with GPA rated Good (moderate to large volume of clear to semiclear liquid) (colon [6]; 24 g/24 g cohort): 7 (29.2) subjects (%)
Subjects with GPA rated Poor (semisolid or solid stool unable to be suctioned or washed away) (colon [6]; 24 g/24 g cohort): 0 (0.0) subjects (%)
Subjects with GPA rated Excellent (clean colon or small volume of clear liquid) (colon [6]; 36 g/36 g cohort): 14 (58.3%) subjects (%) and 14 (58.3) subjects (%)
Subjects with GPA rated Fair (some semisolid stool suctioned or washed away) (colon [6]; 36 g/36 g cohort): 2 (8.3) subjects (%)
Subjects with GPA rated Good (moderate to large volume of clear to semiclear liquid) (colon [6]; 36 g/36 g cohort): 7 (29.2) subjects (%)
Subjects with GPA rated Poor (semisolid or solid stool unable to be suctioned or washed away) (colon [6]; 36 g/36 g cohort): 1 (4.2%) subjects (%) and 1 (4.2) subjects (%)
Subjects with GPA rated Excellent (clean colon or small volume of clear liquid) (colon [6]; 48 g/48 g cohort): 22 (91.7%) subjects (%) and 22 (91.7) subjects (%)
Subjects with GPA rated Fair (some semisolid stool suctioned or washed away) (colon [6]; 48 g/48 g cohort): 1 (4.2) subjects (%)
Subjects with GPA rated Good (moderate to large volume of clear to semiclear liquid) (colon [6]; 48 g/48 g cohort): 1 (4.2) subjects (%)
Subjects with GPA rated Poor (semisolid or solid stool unable to be suctioned or washed away) (colon [6]; 48 g/48 g cohort): 0 (0.0) subjects (%)
Robustness of bowel cleansing (colon [6]; [9]): more robust bowel cleansing
Time to the first watery bowel movement (colon [6]; [9]): shortest time to the first watery bowel movement
Subjects who had a complete colonoscopy (colon [6]; Site 01, all dose cohorts): 30 (96.8%) subjects (%)
Subjects with GPA rated poor (colon [6]; Site 01, all dose cohorts): 1 (3.2%) subjects (%)
Subjects who had a complete colonoscopy (colon [6]; Site 02, all dose cohorts): 39 (95.1%) subjects (%)
Subjects with GPA rated Excellent (clean colon or small volume of clear liquid) (colon [6]; Total of all cohorts): 48 (66.7) subjects (%)
Subjects with GPA rated Fair (some semisolid stool suctioned or washed away) (colon [6]; Total of all cohorts): 8 (11.1) subjects (%)
Subjects with GPA rated Good (moderate to large volume of clear to semiclear liquid) (colon [6]; Total of all cohorts): 15 (20.8) subjects (%)
Subjects with GPA rated Poor (semisolid or solid stool unable to be suctioned or washed away) (colon [6]; Total of all cohorts): 1 (1.4) subjects (%)
Subjects who had a complete colonoscopy (endoscopist able to reach the cecum) (colon [6]; in each dose cohort (24 g/24 g, 36 g/36 g, 48 g/48 g)): 23 (95.8%) subjects (%)
Effect of food restriction on the metabolism of L-glucose ([7]; in vivo): no significant effect
Major route of L-glucose elimination ([7]; mice, rats, dogs, rabbits, and monkeys): urinary excretion

O.O=C[C@@H](O)[C@H](O)[C@@H](O)[C@@H](O)CO [L-glucose monohydrate]
Observations: clusters or clumping of solid ([8]; 5 min. delay): Several clusters of solid at 1 min. Final solution
Time of stirring until sample fully dissolved ([8]; 5 min. delay before stirring, listed as L- glucose monohydrate^1, monohydrate): Sample fully dissolved after 2.5 min. of stirring.
Time of stirring until sample fully dissolved ([8]; 5 min. delay before stirring, listed as L- glucose monohydrate^2, monohydrate): Fully dissolved after 1 min. of stirring. Final
Observations: appearance of final solution ([8]; 5 min. delay, listed as L- glucose monohydrate^2, monohydrate): solution was clear, colorless and homogeneous
Observations: clusters or clumping of solid ([8]; No delay): Several clusters of solid at 1 min. Final solution
Time of stirring until sample fully dissolved ([8]; No delay (stirred immediately), listed as L- glucose monohydrate^1, monohydrate): Sample fully dissolved after 2.5 min. of stirring.
Time of stirring until sample fully dissolved ([8]; No delay (stirred immediately), listed as L- glucose monohydrate^2, monohydrate): Fully dissolved after 2 min. of stirring. Final
Observations: appearance of final solution ([8]; No delay, listed as L- glucose monohydrate^2, monohydrate): solution was clear, colorless and homogeneous

OC[C@@H]1OC(O)[C@@H](O)[C@H](O)[C@H]1O (stereo partly drawn) [anhydrous L-glucose, reference compound]
Observations: clusters or clumping of solid ([8]; 5 min. delay): Material clumped into a hard mass during time
Observations: appearance of final solution ([8]; No delay): stirring. Clear solution results with latent
